From patent publication US8846012B2, “Melanin production inhibitor” (Pola Chemical Industries Inc., priority 2008, dated 2014)
≈ marks a conversion by molar mass, not a printed value. Like-named read-outs stand apart in the source and are kept apart here.

What was measured:
normal human melanocytes = assay: Melanin production inhibition test using cultured normal human melanocytes (14C-thiouracil incorporation); assay type: cell-based; conditions: for activity at 2 µM: addition amount 2.0 μM; for activity at 20 µM: treatment concentration 20 μM; for activity at 15 µM: treatment concentration 15 μM
Description: The inhibitory effect on melanin production of the melanin production inhibitor of the present invention can be measured using thiouracil which is incorporated specifically into cells in a melanin synthesis process in the cells. For example, the amount of melanin production can be measured by measuring an amount of thiouracil incorporated into cells by measuring an amount of radiation with radiolabeled thiouracil.
The inhibitory effect on melanin production of Compound 1 was evaluated using 2-thiouracil (^14C-labeled 2-thiouracil was used in this test) which is incorporated specifically into melanin in an intracellular melanin synthesis process. Complete medium for culture of melanocytes (manufactured by Kurabo Industries Ltd.) was added to 15 wells in a 24-well plate in an amount of 2 mL per well, and normal human melanocytes (manufactured by Kurabo Industries Ltd.) were seeded into the wells at a concentration of 1.5×10^4 cells/cm^2. The cells were cultured in a 5% carbon dioxide atmosphere at 37° C. for 24 hours. Thereafter, the medium in all the wells was exchanged under the following conditions: fresh complete medium for culture of melanocytes (control) was used in three wells; each of complete medium for culture of melanocytes, which including Compound 1 at concentrations of 1.0 μM, 2.0 μM, and 4.0 μM, was used in a total of nine wells including three wells for each concentration; and complete medium for culture of melanocytes, each of which including arbutin (positive control) known as a melanin production inhibitor at a concentration of 0.5 mM (500 μM), was used in the other three wells. Further, 2-[2-^14C]thiouracil (^14C-labeled thiouracil) was added to each of these 15 wells at 0.25×10^−6 Ci (curie). Then, the cells were cultured for further 3 days under the same conditions as the above. After the completion of culture, the culture medium was removed from the wells, and the cells were washed with phosphate buffered physiological saline (PBS) and then separated from the bottoms of the wells with medium including trypsin and EDTA to prepare cell suspensions, followed by centrifugation to collect the cells. The number of the cells was counted using a hemocytometer. Thereafter, the amounts of ^14C-thiouracil in the cells collected from each well (0.25×10^−6 Ci) were measured using a liquid scintillation counter (ALOKA CO., LTD.). The percentages of an amount of radioactivity in the cells cultured in the medium including the test substances with respect to an amount of radioactivity in the cells collected from the well of the control were calculated as amounts of melanin (%). That is, as the amount of radioactivity incorporated into the cells is smaller, the amount of melanin is evaluated to be smaller, i.e., the melanin inhibition effect of the component added is evaluated to be larger.
Inhibitory effects on melanin production of Compounds 2 to 39 (however, the effects of Compound 9 and 15 were not measured) were examined in the same procedure as in Test Example 1.
These were examined in the same procedure as in Test Example 1.
Further, the results of melanin production inhibition by treatment with the respective test compounds, determined in the same procedure as in Test Example 1, are also shown in the table.

[1] = system: Trichopyton mentagrophytes (ATCC18748); assay: Measurement of antimycotic activity (Alamar Blue growth inhibition of dermatophytes); assay type: cell-based; conditions: for growth inhibitory effect on Trichopyton mentagrophytes (in words): added at a concentration of 100 μg/mL; for MIC80: read-out: MIC80 Concentration; for inhibition at 0.1563 µg/mL / inhibition at 0.3125 µg/mL / inhibition at 0.625 µg/mL / inhibition at 1.25 µg/mL / inhibition at 2.5 µg/mL / inhibition at 5 µg/mL / inhibition at 10 µg/mL / inhibition at 100 µg/mL: read-out: Growth inhibition rate
Description: 10.4 g of RPMI1640 (manufactured by SAFC Biosciences) were dissolved in 900 mL of distilled water, and 34.53 g of a 0.165 M MOPS buffer (manufactured by DOJINDO LABORATORIES) were added and dissolved by stirring.
Dermatophytes (Trichopyton mentagrophytes (ATCC18748)) were inoculated into a 1/10 Sabouraud Dextrose agar medium (manufactured by DIFCO) and cultured at 28° C. for 14 days, and then a conidial suspension was prepared using 0.1% Tween80-including physiological saline. The suspension was filtered through gauze, and the number of the conidia was counted using a hemocytometer and then adjusted to 2.5×10^5/mL with the RPMI1640 medium. The resultant suspension was used as an inoculum.
Compound 5 and clotrimazole were diluted with the RPMI1640 medium to prepare 0.3125, 0.625, 1.25, 2.5, 5, 10, 20, and 200 μg/mL diluted solutions. The diluted solutions having different concentrations were dispensed into a 96-well flat-bottom microplate in an amount of 100 μL per well, and 80 μL of the inoculum and 20 μL of an Alamar Blue solution (manufactured by Nalgene) were further added thereto. Further, 80 μL of the inoculum and 20 μL of the Alamar Blue solution were added to 100 μL of the RPMI1640 medium in growth control wells, and 20 μL of the Alamar Blue solution was added to 180 μL of the RPMI1640 medium in negative control wells. The microplate was placed in a chamber in which the humidity was kept constant, and culture was started at 27° C., and the cells were observed every 24 hours. 120 hours from beginning of culture, i.e., when the growth control became obviously red (reduced form), absorbance measurement at 570 nm was performed using a microplate reader (SPECTRAMAX 250, manufactured by Molecular Device).
The test compounds were tested at the respective concentrations in triplicate. The growth inhibition rate (%) of each of the test compound-added groups was determined by the following equation based on a value calculated by subtracting an average absorbance value of the negative control from an average absorbance value of the growth control and the test compound-added wells. Further, […] (minimum inhibitory concentration; the minimum concentration at which the growth inhibition rate is 80% or more) was calculated from the growth inhibition rate of each test compound. Growth inhibition rate (%)=[1−(average absorbance value in test compound-added wells-average absorbance value of negative control)/(average absorbance value of growth control-average absorbance value of negative control)]×100
Compound 1, Compounds 3 to 6, Compound 40, Compound 41, triphenylmethylamine, triphenylmethanol, triphenylmethane, aminodiphenylmethane, and clotrimazole were diluted with the RPMI1640 medium to prepare 0.3125, 0.625, 1.25, 2.5, 5, 10, 20, and 200 μg/mL diluted solutions. The diluted solutions having different concentrations were dispensed into a 96-well flat-bottom microplate in an amount of 100 μl, per well, and 80 μL of the inoculum and 20 μl, of an Alamar Blue solution (manufactured by Nalgene) were further added thereto. Further, 80 μl, of the inoculum and 20 μl, of the Alamar Blue solution were added to 100 μL of the RPMI1640 medium in growth control wells, and 20 μL of the Alamar Blue solution was added to 180 μL of the RPMI1640 medium in negative control wells. The microplate was placed in a chamber in which the humidity was kept constant, and then culture was started at 27° C., and the cells were observed every 24 hours. 120 hours from beginning of culture, i.e., when the growth control became obviously red (reduced form), absorbance measurement at 570 nm was performed using a microplate reader (SPECTRAMAX 250, manufactured by Molecular Device).
The test compounds were tested at the respective concentrations in triplicate. […]

[2] = minimum concentration at which the growth inhibition rate is 80% or more
[3] = Homo sapiens, Melanocyte, Table 7, treatment concentration 4 μM, read-out: Amount of melanin
[4] = Homo sapiens, Melanocyte, Table 7, read-out: Amount of melanin

NC(c1ccccc1)c1ccccc1 [Aminodiphenylmethane]
activity at 40 µM (normal human melanocytes; Homo sapiens, Melanocyte, Table 3, addition amount 40 μM, control = 100%): 36.6 ± 12.8%
activity at 50 µM (normal human melanocytes; Homo sapiens, Melanocyte, Table 7, treatment concentration 50 μM, read-out: Amount of melanin): 28.8 ± 2.03%
growth inhibitory effect on Trichopyton mentagrophytes (in words) [1]: no growth inhibitory effect
MIC80 [1, 2]: > 100 µg/mL

c1ccc(C(c2ccccc2)(c2ccccc2)N2CCCC2)cc1 [Compound 6, 1-(triphenylmethyl)pyrrolidine]
activity at 2 µM (normal human melanocytes; Homo sapiens, Melanocyte, Table 2, control = 100%): 32.6 ± 4.1%
activity at 4 µM (normal human melanocytes; [3]): 17.2 ± 0.8%
growth inhibitory effect on Trichopyton mentagrophytes (in words) [1]: no growth inhibitory effect
MIC80 [1]: > 100 µg/mL

c1ccc(C(c2ccccc2)(c2ccccc2)N2CCCCC2)cc1 [Compound 5, 1-(triphenylmethyl)piperidine]
activity at 1.5 µM (normal human melanocytes; Homo sapiens, Melanocyte, Table 2, addition amount 1.5 μM, control = 100%): 37.7 ± 0.8%
activity at 4 µM (normal human melanocytes; [3]): 16.8 ± 0.96%
inhibition at 0.1563 µg/mL ([1]; 120 h): -4.5%
inhibition at 0.3125 µg/mL ([1]; 120 h): 8%
inhibition at 0.625 µg/mL ([1]; 120 h): -2.7%
inhibition at 1.25 µg/mL ([1]; 120 h): 3.1%
inhibition at 2.5 µg/mL ([1]; 120 h): -4.5%
inhibition at 5 µg/mL ([1]; 120 h): -17.5%
inhibition at 10 µg/mL ([1]; 120 h): -14.4%
inhibition at 100 µg/mL ([1]; 120 h): 13.2%
MIC80 [1]: > 100 µg/mL

NC(c1ccccc1)(c1ccccc1)c1ccccc1 [Triphenylmethylamine]
activity at 12.5 µM (normal human melanocytes; Homo sapiens, Melanocyte, Table 3, addition amount 12.5 μM, control = 100%): 57.3 ± 1.6%
activity at 20 µM (normal human melanocytes; [4]): 23 ± 2.41%
growth inhibitory effect on Trichopyton mentagrophytes (in words) [1]: no growth inhibitory effect
MIC80 [1, 2]: > 100 µg/mL

OC(c1ccccc1)(c1ccccc1)c1ccccc1 [Triphenylmethanol]
activity at 7.5 µM (normal human melanocytes; Homo sapiens, Melanocyte, Table 3, addition amount 7.5 μM, control = 100%): 41.3 ± 2.8%
activity at 15 µM (normal human melanocytes; [4]): 31.6 ± 2.39%
MIC80 Concentration [1, 2]: 100.0000 µg/mL (≈ 384 µM)
MIC80 [1, 2]: 100 µg/mL (≈ 384 µM)

Cc1ccc(C(O)c2ccc(C)cc2)cc1 [Compound 14, [bis(4-methylphenyl)]methanol]
activity at 25 µM (normal human melanocytes; Homo sapiens, Melanocyte, Table 2, addition amount 25 μM, control = 100%): 44.6 ± 5.6%
activity at 40 µM (normal human melanocytes; Homo sapiens, Melanocyte, Table 7, treatment concentration 40 μM, read-out: Amount of melanin): 37.9 ± 1.39%
MIC80 Concentration [1, 2]: 100.0000 µg/mL (≈ 471 µM)
MIC80 [1, 2]: 100 µg/mL (≈ 471 µM)

c1ccc(C(c2ccccc2)(c2ccccc2)n2ccnc2)cc1 [Compound 1, 1-(triphenylmethyl)imidazole]
inhibitory effect of melanin production relative to that of arbutin (normal human melanocytes; 1.0 μM Compound 1 compared with 0.5 mM arbutin): ≥ 100 times
activity at 1 µM (normal human melanocytes; Homo sapiens, Melanocyte, addition amount 1.0 μM, control = 100%, mean ± SD of three samples): 63.8 ± 3.6%
activity at 2 µM (normal human melanocytes; Homo sapiens, Melanocyte, control = 100%, mean ± SD of three samples): 37 ± 5.3%
activity at 4 µM (normal human melanocytes; Homo sapiens, Melanocyte, addition amount 4.0 μM, control = 100%, mean ± SD of three samples): 29.2 ± 2.9%
activity at 4 µM (normal human melanocytes; [3]): 29.5 ± 2.5%
MIC80 [1, 2]: 0.625 µg/mL (≈ 2.01 µM)

c1ccc(C(c2ccccc2)(c2ccncc2)n2ccnc2)cc1 [Compound 40, 1-[(diphenylpyridyl)methyl]imidazole]
activity at 20 µM (normal human melanocytes; [4]): 44.7 ± 4.2%
MIC80 [1, 2]: 10 µg/mL (≈ 32.1 µM)

c1ccc(C(c2ccccc2)c2ccccc2)cc1 [Triphenylmethane]
activity at 15 µM (normal human melanocytes; [4]): 32.2 ± 1.82%
activity at 10 µM (normal human melanocytes; Homo sapiens, Melanocyte, Table 3, addition amount 10 μM, control = 100%): 42.3 ± 1.4%
growth inhibitory effect on Trichopyton mentagrophytes (in words) [1]: no growth inhibitory effect
MIC80 [1]: > 100 µg/mL

Clc1ccccc1C(c1ccccc1)(c1ccccc1)n1ccnc1 [Clotrimazole, clotrimazole, reference compound]
activity at 2.5 µM (normal human melanocytes; Homo sapiens, Melanocyte, Table 7, treatment concentration 2.5 μM, read-out: Amount of melanin): 23.2%
Amount of melanin (normal human melanocytes; Table 7, treatment concentration 2.5 μM): 23.2 ± 2.03 %/control
inhibition at 0.1563 µg/mL ([1]; concentration 0.1563 μg/mL, 120 hours): 27%
inhibition at 0.3125 µg/mL ([1]; concentration 0.3125 μg/mL, 120 hours): 53%
inhibition at 0.625 µg/mL ([1]; concentration 0.6250 μg/mL, 120 hours): 82.5%
inhibition at 1.25 µg/mL ([1]; concentration 1.2500 μg/mL, 120 hours): 92.2%
inhibition at 2.5 µg/mL ([1]; concentration 2.5000 μg/mL, 120 hours): 93.4%
inhibition at 5 µg/mL ([1]; concentration 5.0000 μg/mL, 120 hours): 85.4%
inhibition at 10 µg/mL ([1]; concentration 10.0000 μg/mL, 120 hours): 92.2%
inhibition at 100 µg/mL ([1]; concentration 100.0000 μg/mL, 120 hours): 88.9%
MIC80 [1, 2]: 0.625 µg/mL (≈ 1.81 µM)

Cc1ccc(C(c2ccc(C)cc2)n2ccnc2)cc1 [Compound 41]
activity at 15 µM (normal human melanocytes; [4]): 34.1 ± 2.58%
MIC80 [1, 2]: 5 µg/mL (≈ 19.1 µM)
